Experiments:
Masugi's nephritis = test: Effect of TO-195 on Masugi's nephritis; type: in vivo, rat; conditions: oral
plasmin = plasmin (Homo sapiens, UniProt P00747); test: anti-plasmin activity, hydrolysis of TAME (tosylarginine methyl ester); type: biochemical; conditions: hydrolysis of TAME; read-out: Pla: molar concentration inhibiting 50% of enzyme activity (IC50)
Description: (§1) The values in Table 1 represent molar concentrations (IC50) of test compounds which inhibit 50% of the activity of each enzyme to hydrolyze TAME (tosylarginine methyl ester). The anti-trypsin, anti-plasmin, anti-kallikrein and anti-thrombin activities were determined according to the method of Muramatsu et al. (J. Biochem. (1965), volume 58, page 214).

[1] = test system: rabbit serum albumin (RSA) nephritis; test: Effect of TO-195 on rabbit serum albumin (RSA) nephritis; type: in vivo, rat (Sprague Dawley); conditions: oral
Description: About 90% of human glomerular nephritis has been described as being immune complex nephritis which is caused by deposition in the glomeruli of immune complexes formed by the binding of antigens with antibodies in the blood. Effectiveness in treating rabbit serum albumin (RSA) nephritis in rats, which is known as an experimental model of nephritis caused by antigen-antibody reaction (Folia pharmacol. japon, 78: 491-499 (1981)), is shown below:
Sprague Dawley rats were immunized by subcutaneous injection in the back of 3 mg rabbit serum albumin in complete Freud's adjuvant (CFA). Two weeks after the subcutaneous injection, the rats were administered 1 mg of RSA (in saline) into the tail vein every other day for 10 weeks. Seven weeks after the first subcutaneous injection, the rats were also boosted with 3 mg RSA as in the first subcutaneous injection. The control group was injected with saline. Two weeks after the first IV injection, rats with more than 100 mg/day proteinurea after IV administration of RSA were divided into two groups each consisting of five rats. One group was orally given 30 mg/kg of TO-195 (in a suspension in water) twice a day for 20 days. The other group (untreated) and the control group were given distilled water p.o. (oral administration). The index of effectiveness of TO-195 was protein concentration in urine.

adjuvant arthritis = test: Effectiveness in treating adjuvant arthritis (Mycobacterium butyricum); type: in vivo, rat; conditions: 60 mg/kg, oral, day -1 to day 13
Description: Adjuvant arthritis is known as a representative model of autoimmune diseases and is a effective means of testing agents to treat human rheumatoid arthritis (Encyclopedia of Immunology, edited by I. M. Roitt, Academic Press, 1992; Otterness, I. G., et al., J. of Rheumatology (1991), volume 18, pages 505-511),
The method of experiment was as follows. A 0.6% Mycobacterium butyricum liquid paraffin suspension, 0.1 ml/animal, was administered to a rat at a subcutaneous site of left hind-limb sole to induce adjuvant arthritis. The present compound was orally administered (in the form of a suspension in water) consecutively from 1 day before the induction to 13 days after the induction. The efficacy of the present compound on adjuvant arthritis was evaluated by examining the swelling accompanied by red spots and subcutaneous knots at the fore-limb, hind-limb, tail, ear and periphery of eye with the lapse of days (on the 8th, 10th, 12th, 14th, 16th and 18th days after adjuvant administration), expressing the results in terms of scores according to the method of F. D. Wood et al. (Int. Arch. Allergy (1969), volume 35, pages 456-467), and calculating the percentage inhibition relative to the control group. Thus, the higher value of percentage inhibition indicates the higher effectiveness.

kallikrein = test: anti-kallikrein activity, hydrolysis of TAME (tosylarginine methyl ester); type: biochemical
Description: as §1

plasmin, sequence (P00747 581-810 limits assumed, species assumed): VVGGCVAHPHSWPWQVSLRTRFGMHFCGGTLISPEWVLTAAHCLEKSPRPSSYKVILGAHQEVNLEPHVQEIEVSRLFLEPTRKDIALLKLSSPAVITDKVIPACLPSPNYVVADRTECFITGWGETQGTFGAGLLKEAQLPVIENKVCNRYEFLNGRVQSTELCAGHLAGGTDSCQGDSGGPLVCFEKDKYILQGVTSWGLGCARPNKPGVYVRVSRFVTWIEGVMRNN
plasmin, sequence (P00747 97-580 partner limits assumed, species assumed): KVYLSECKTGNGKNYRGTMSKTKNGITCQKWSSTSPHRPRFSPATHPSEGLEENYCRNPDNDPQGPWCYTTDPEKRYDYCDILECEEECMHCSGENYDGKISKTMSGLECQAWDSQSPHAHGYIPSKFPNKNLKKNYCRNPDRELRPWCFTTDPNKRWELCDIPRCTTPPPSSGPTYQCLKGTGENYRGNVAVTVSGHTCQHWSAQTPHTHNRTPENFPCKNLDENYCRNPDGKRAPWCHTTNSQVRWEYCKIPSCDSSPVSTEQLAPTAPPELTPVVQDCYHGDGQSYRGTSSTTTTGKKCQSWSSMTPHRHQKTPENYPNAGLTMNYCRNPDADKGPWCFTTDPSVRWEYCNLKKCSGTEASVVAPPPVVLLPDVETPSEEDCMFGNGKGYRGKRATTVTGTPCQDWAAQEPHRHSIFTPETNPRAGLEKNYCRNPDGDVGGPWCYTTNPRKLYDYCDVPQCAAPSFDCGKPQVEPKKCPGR

Compound: Cl.N=C(N)c1ccc2cc(OC(=O)c3ccc(CNC(=O)CCCC(=O)O)o3)ccc2c1 [Example 22, 6-Amidino-2-naphthyl 5-(4-carboxybutyrylaminomethyl)furan-2-carboxylate hydrochloride]
- urinary protein excretion (in words) (Masugi's nephritis; 3, 10, or 30 mg/kg×2/day, from 2 days before through day 10 after nephrotoxin): significantly decreased urinary protein excretion
- Light microscopic examination of the glomeruli (in words) (Masugi's nephritis; 10 and 30 mg/kg×2/day, compared to control group): significant anti-nephritic effect
- urinary protein excretion (in words) (Masugi's nephritis; twice a day from day 4 to day 10 after nephrotoxin): significantly decreased urinary protein excretion
- IC50 (plasmin): 430 nM
- Protein concentration in urine ([1]; 30 mg/kg twice a day, 20 days, mean ± standard deviation, five animals, untreated 385.9 ± 187.23, control 8.5 ± 2.62): 152.1 ± 49.11 mg/mL
- N-acetyl-β-D-glucosamineidase excretion (in words) ([1]; 30 mg/kg×2/day): decreased
- alkaline phosphatase excretion (in words) ([1]; 30 mg/kg×2/day): decreased
- urinary protein excretion (in words) ([1]; 30 mg/kg×2/day): decreased urinary protein excretion
- Percentage inhibition (arthritis score) (adjuvant arthritis): 97.3%
- kallikrein inhibition (in words) (kallikrein): inhibitor
- IC50 (kallikrein; hydrolysis of TAME, read-out: Kal: molar concentration inhibiting 50% of enzyme activity (IC50)): 470 nM
